Results on three compounds are retold here after patent publication US8334403B1, “C-lysine conjugates as pH-controlled, light-activated reagents for double stranded DNA cleavage and associated methods” (Florida State University Research Foundation, Inc., priority 2005, dated 2012).

For one data set, the system named is pBR322 plasmid DNA. As to the kind of experiment: Plasmid relaxation assay: DNA photocleavage of supercoiled plasmid under UV irradiation. In kind it is biochemical. To be noted: pH 6, 15 μM, 10 min of UV irradiation. The procedure:
General information. ^1H, ^13C and ^19F NMR were collected on a Varian Gemini 300 MHz NMR spectrometer and a Bruker 300 MHz NMR spectrometer. Mass spectrometry data was collected on a Jeol JMS-600H. UV spectra were recorded on a Shimadzu UV-2100. Fluorescence spectra were obtained with SPEX FluoMax spectrofluorimeter using right-angle geometry. pH was adjusted with AB 15 plus pH meter (Accument) after standardization at 25° C. All buffers were prepared and pH-adjusted at room temperature (25° C.). Plasmid DNA Photocleavage. pBR322 plasmid DNA (4,361 b/p; from BioLabs Inc., 1 μg/μL solution in 10 mM Tris-HCl (pH 8.0), and 1 mM EDTA buffer) was diluted to a concentration of 0.01 μg/μL. The solution containing cleavage agent, DNA (30 μM/bp) in 20 mM sodium phosphate buffer was incubated for 1 hour at 30° C. Samples were placed on ice at a distance of 20 cm from 200 W Hg—Xe lamp (Spectra-Physics, Laser & Photonics Oriel Instruments with long pass filter with 324 nm cut-off wavelength). Electrophoretic Analysis. The gel electrophoresis was carried out in 1×TBE buffer at 80 V using Miligel FisherBiotech Horizontal Electrophoresis System. All gels were run on 1% agarose slab gels. Before loading, the DNA samples were mixed with 0.33 volume of tracking dye containing bromophenol blue (0.25%) and glycerol (30%) in water. After staining in ethidium bromide solution (2 μg/ml) for 1 hour, the gel was washed with water and pictures were taken with Polaroid 3000ISO type 667 film. The relative quantities of the supercoiled, nicked, and linear DNA were calculated by integrating the “area” of each spot by the image analyzer software Total/Lab (Nonlinear Dynamics Ltd., UK). The amount of supercoiled DNA was multiplied by factor of 1.4 to account for reduced ethidium bromide intercalation into supercoiled DNA. pH titration by ^1H-NMR. pH* of compound 8 (3 mM) solution in D2O containing 0.05 wt % 3-(trimethylsilyl)propionic-2,2,3,3-d4 acid, sodium salt (TSP-d4) was adjusted with 10 wt % DCI and NaOD in D2O at 25° C. under argon purged condition. Spectrometric determinations of pKa. pH of 10 μM of compound solution in H2O was adjusted with 10, 100 mM HCl (aq) and NaOH (aq) solution under argon purged condition. Excitation wavelength was 330 nm and polymethacrylate fluorimeter cuvettes were used. Absorbance and fluorescence titration with DNA. The concentrations of calf thymus DNA stock solution was determined spectophotometrically using the following molar absorptovity values: 1.32×10^4 M^−1 cm^−1 (per base pair) at 260 nm. All experiments were done in 20 mM sodium phosphate buffer at 25° C. and polymethacrylate fluorimeter cuvettes were used. The same amount of DNA was added to both sample and reference cuvettes during UV/Vis titration. Determination of excited state lifetimes. The concentration of compound solution was 10 μM in 20 mM sodium phosphate buffer. The photoluminescence lifetime measurements were conducted by exciting the samples with the output of a Nd:VO—4 (Spectra-Physics Vanguard, 2 W, 532 nm, 76 MHz, 10 ps) pumped R6G dye laser (Coherent 702-1). The output of the dye laser (600 nm, Rhodamine 6G) was cavity dumped at 1.9 MHz and frequency doubled using a BBO crystal to excite the fluorophore (the excitation wavelength used was 290 nm). Samples were excited with <1 mW power and the emission was collected at right angles onto a Chromex S3 500 is 0.5 m imaging monochromator with a 50 g/mm grating and 0.5 nm resolution. Output of the monochromator is focused into a Hamamatsu C5680 streak camera operating at a 20 ns window for the fluorophore. Intensity analysis was carried out by integrating the spectral profile in time on the streak camera. Lifetime analysis over 6-7 lifetimes of the fluorophore was conducted by binning the photoluminescence intensity collected on the streak camera over a 20 nm spectral window at the centroid value of the emission of the fluorophore. Ethidium bromide displacement. […]

Data set [1] can be described thus: UV-absorption titration determination of pKa. The data set is classed as physicochemical. The procedure:
(§1) General information. ^1H, ^13C and ^19F NMR were collected on a Varian Gemini 300 MHz NMR spectrometer and a Bruker 300 MHz NMR spectrometer. Mass spectrometry data was collected on a Jeol JMS-600H. UV spectra were recorded on a Shimadzu UV-2100. Fluorescence spectra were obtained with SPEX FluoMax spectrofluorimeter using right-angle geometry. pH was adjusted with AB 15 plus pH meter (Accument) after standardization at 25° C. All buffers were prepared and pH-adjusted at room temperature (25° C.). Plasmid DNA Photocleavage. pBR322 plasmid DNA (4,361 b/p; from BioLabs Inc., 1 μg/μL solution in 10 mM Tris-HCl (pH 8.0), and 1 mM EDTA buffer) was diluted to a concentration of 0.01 μg/μL. The solution containing cleavage agent, DNA (30 μM/bp) in 20 mM sodium phosphate buffer was incubated for 1 hour at 30° C. Samples were placed on ice at a distance of 20 cm from 200 W Hg—Xe lamp (Spectra-Physics, Laser & Photonics Oriel Instruments with long pass filter with 324 nm cut-off wavelength). Electrophoretic Analysis. The gel electrophoresis was carried out in 1×TBE buffer at 80 V using Miligel FisherBiotech Horizontal Electrophoresis System. All gels were run on 1% agarose slab gels. Before loading, the DNA samples were mixed with 0.33 volume of tracking dye containing bromophenol blue (0.25%) and glycerol (30%) in water. After staining in ethidium bromide solution (2 μg/ml) for 1 hour, the gel was washed with water and pictures were taken with Polaroid 3000ISO type 667 film. The relative quantities of the supercoiled, nicked, and linear DNA were calculated by integrating the “area” of each spot by the image analyzer software Total/Lab (Nonlinear Dynamics Ltd., UK). The amount of supercoiled DNA was multiplied by factor of 1.4 to account for reduced ethidium bromide intercalation into supercoiled DNA. pH titration by ^1H-NMR. pH* of compound 8 (3 mM) solution in D2O containing 0.05 wt % 3-(trimethylsilyl)propionic-2,2,3,3-d4 acid, sodium salt (TSP-d4) was adjusted with 10 wt % DCI and NaOD in D2O at 25° C. under argon purged condition. Spectrometric determinations of pKa. pH of 10 μM of compound solution in H2O was adjusted with 10, 100 mM HCl (aq) and NaOH (aq) solution under argon purged condition. Excitation wavelength was 330 nm and polymethacrylate fluorimeter cuvettes were used. Absorbance and fluorescence titration with DNA. The concentrations of calf thymus DNA stock solution was determined spectophotometrically using the following molar absorptovity values: 1.32×10^4 M^−1 cm^−1 (per base pair) at 260 nm. All experiments were done in 20 mM sodium phosphate buffer at 25° C. and polymethacrylate fluorimeter cuvettes were used. The same amount of DNA was added to both sample and reference cuvettes during UV/Vis titration. Determination of excited state lifetimes. The concentration of compound solution was 10 μM in 20 mM sodium phosphate buffer. The photoluminescence lifetime measurements were conducted by exciting the samples with the output of a Nd:VO—4 (Spectra-Physics Vanguard, 2 W, 532 nm, 76 MHz, 10 ps) pumped R6G dye laser (Coherent 702-1). The output of the dye laser (600 nm, Rhodamine 6G) was cavity dumped at 1.9 MHz and frequency doubled using a BBO crystal to excite the fluorophore (the excitation wavelength used was 290 nm). Samples were excited with <1 mW power and the emission was collected at right angles onto a Chromex S3 500 is 0.5 m imaging monochromator with a 50 g/mm grating and 0.5 nm resolution. […]

Data set [2] in a line: Fluorometric (emission) determination of pKa. To be noted: emission; α-amino group (4, 6), ε-amino group (7). The data set is classed as physicochemical. The method, then: as §1
In data set [3] the test system is three human clear cell renal cell carcinoma (RCC) cell lines (UMRC3, UMRC6, 786-O). Kind of data set: RCC cell proliferation assay, three cell lines together. In kind it is cell-based. To be noted: 10 μM. The method, then:
FIG. 23 provides the results of cell proliferation assays using three different RCC cell lines: (a) UMRC3, (b) UMRC6 and (c) 786-O, and compounds I-5; RCC cells were resuspended in media and treated with UV radiation (350 nm) for 10 minutes with and without indicated compounds; control cells were exposed to the indicated compound 1-5 at final concentration of 10 μM; cell numbers determined after 72 hours as described in the SI Section;
The ability of compounds 1-5 to inhibit cell proliferation in three human clear cell renal cell carcinoma (RCC) cell lines was tested in the dark and under photoactivation (FIG. 23). No difference was detected in the control experiments between cells not exposed to UV versus those that were exposed to UV at 350 nm for 10 minutes in any of the three RCC cell lines tested (FIG. 23 A, B & C; first two columns).

The next data set deals with DNA. To be noted: cited from earlier work.

Where two headings read alike, the source gives them in different places.

`Cl.NCCCCCC(=O)Nc1ccc(C#Cc2c(F)c(F)nc(F)c2F)cc1` [Compound 7, 6-Aminohexanoic acid [4-(2,3,5,6-tetrafluoro-pyridin-4-ylethynyl)-phenyl]-amide Hydrochloride]: in the data set with pBR322 plasmid DNA, the ds-cleavage result is reported as “do not produce any ds-cleavage”. In addition, the “pKa for the ε-ammonium group lower by absorption than derived from the fluorescence changes” value in data set [1] (absorption vs fluorescence) was above 1 pKa units. In addition, the pKa1 is given as 9.4 in data set [1] (absorption, α-amino group (4, 6), ε-amino group (7)) and 10.8 in data set [2].
As to `Cl.Cl.NCCCC[C@H](N)C(=O)Nc1ccc(C#Cc2ccccc2)cc1` [Compound 5, (S)-2,6-Diaminohexanoic acid [4-(phenylethynyl)-phenyl]-amide dihydrochloride], the “cytotoxicity in the dark” value in data set [3] is recorded as “considerably less cytotoxic in the dark”.
As to `COc1cc(CCN)c2c(c1OC)SS[S+]2[O-]` (stereo not shown) [Varacin C], the “extent of single stranded (ss) DNA cleavage” value with DNA (pH 5.5, 5 μM antibiotic loading) is given as 47%; in the data set on DNA (pH 7), 23%.
